Where a name gives a salt, the structure may show the parent alone.
What was measured:
PAF-induced hypotension = test: Inhibition of PAF-induced hypotension (rat, i.v.); type: in vivo, rats of the Wistar-Imamichi strain; settings: 50% inhibitory dose, intravenous, cumulative doses, 10 ng/kg i.v. 1-C16:0 PAF, Inactin anesthesia, rats, read-out: Inhibition of Hypotension ID50
Procedure: Inhibition of PAF-induced hypotension
The test animals employed were rats of the Wistar-Imamichi strain, each weighing between 350 and 450 g.
Under Inactin anesthesia (90 mg/kg administered intraperitoneally) the left femoral artery and vein of each test animal were cannulated to enable the arterial blood pressure to be monitored continuously and for drug administration, respectively. At intervals of about 5 minutes, each animal was given by intravenous injection 10 ng/kg of synthetic 1-C16:0 PAF until a steady hypotensive response was achieved. At this time, the drug to be tested was administered by intravenous injection in doses increasing cumulatively by a factor of 3. Within 1 minute of this injection, a further 10 ng/kg of the 1-C16:0 PAF was administered. The hypotensive response to PAF was inhibited by the test drug in a dose-related manner.
The PAF was administered in the form of a solution in physiological saline containing 0.25% w/v bovine serum albumin. The test drugs were dissolved in physiological saline containing either 0.25% w/v BSA or 20% v/v ethanol.
The 50% inhibitory dose (ID50) was calculated from the dose-response curve constructed for the inhibition of PAF-induced hypotension.
This test was carried out using compounds of the invention, as well as the prior art compound CV-3988, disclosed in U.S. Pat. No. 4,408,052 and represented by the foregoing formula (B).

[1] = tested on: PAF-induced platelet aggregation; test: Inhibition of PAF-induced platelet aggregation in vitro (platelet-rich plasma); type: cell-based; settings: Oryctolagus cuniculus, 5 min, rabbit plasma, platelet count 6×10^5/μl, C16:0 PAF 1×10^-8-3×10^-8 M final
Procedure: Inhibition of PAF-induced platelet aggregation in vitro
Blood was drawn from a rabbit and immediately mixed with one nineth of its volume of a 3.8% w/v aqueous solution of sodium citrate. A platelet-rich plasma (PRP) was obtained as a supernatant by centrifugation of the blood at 150×g for 15 minutes at room temperature. The precipitated fraction was centrifuged for a further 15 minutes at 1000×g to obtain a platelet-poor plasma (PPP) as a supernatant. Appropriate proportions of this PRP and PPP were mixed to obtain a plasma having a platelet count of 6×10^5 /μl.
Platelet aggregation was determined by the method of Born et al. [G. V. R. Born et al., J. Physiol., 62, 67-68 (1962)] where an increase in light transmission is measured by the aggregometer.
25 μl of a saline solution containing the compound to be tested at an appropriate concentration was added to 250 μl of the above plasma. One minute thereafter. […] The aggregation resulting from the addition of PAF alone, without the prior addition of the test compound was taken as 100%.
The IC50 values (i.e. concentrations to inhibit aggregation by 50%) were calculated from dose-response curves and are shown in Table 6.

IC50 [1] [nM] | Structure (SMILES) | ED50 (PAF-induced hypotension) [mg/kg]
1400 | CCCCCCCCCCCCCCCc1cc(OCC(COP(=O)([O-])OCCCCCC[n+]2ccsc2)Oc2cc(C)on2)no1 (racemic) [Example 23, (2RS)-3-(5-Pentadecyl-3-isoxazolyloxy)-2-(5-methyl-3-isoxazolyloxy)propyl 6-thiazoliohexyl phosphate (inner salt)] | 0.067
310 | CCCCCCCCCCCCCCCc1cc(OCC(COCCCCCCC[n+]2ccsc2)Oc2cc(C)on2)no1 (racemic) [Example 24, (2RS)-1-O-(5-Pentadecyl-3-isoxazolyl)-2-O-(5-methyl-3-isoxazolyl)-3-(7-thiazolioheptyl)glycerol methanesulfonate] | 0.03
270 | CCCCCCCCCCCCCCCc1cc(OCC(COC(=O)NCCCCC[n+]2ccsc2)Oc2cc(C)on2)no1 (racemic) [Example 25, (2RS)-1-O-(5-Pentadecyl-3-isoxazolyl)-2-O-(5-methyl-3-isoxazolyl)-3-O-{N-(5-thiazoliopentyl)carbamoyl}glycerol bromide] | 0.055

The remaining lines, values behind:

Structure (SMILES) | IC50 [1] [nM] | ED50 (PAF-induced hypotension) [mg/kg]
CCCCCCCCCCCCCCCCCCNC(=O)OCC(COP(=O)([O-])OCC[n+]1ccsc1)OC (stereo not drawn) [CV-3988, reference compound] | 9800 | 0.415
CCCCCCCCCCCCCCCCc1cc(OC[C@H](COC(=O)N[C@H](CCCCC[n+]2ccsc2)C(=O)OCC)Oc2ccon2)no1.CS(=O)(=O)[O-] (racemic) [Example 41, 3-{(6RS)-6-Ethoxycarbonyl-6-[(2RS)-3-(5-hexadecyl-3-isoxazolyloxy)-2-(3-isoxazolyloxy)propoxy]carbonylaminohexyl}thiazolium methanesulfonate] | 350 | 0.054
CCCCCCCCCCCCCCCCCNC(=O)OCC(COP(=O)([O-])OCC[n+]1ccsc1)Oc1ccon1 (racemic) [Example 13, (2RS)-3-(N-Heptadecylcarbamoyloxy)-2-(3-isoxazolyloxy)propyl 2-thiazolioethyl phosphate (inner salt)] | 3400 | 0.096
CCCCCCCCCCCCCCCCCNC(=O)OCC(COC(=O)N(Cc1cccc[n+]1CC)C(C)=O)Oc1ccon1 (racemic) [Example 38, 2-{N-Acetyl-N-[(2RS)-3-(N-Heptadecylcarbamoyloxy)-2-(3-isoxazolyloxy)propoxycarbonyl]aminomethyl}-1-ethylpyridinium chloride] | 81 | 0.004
CCCCCCCCCCCCCCCCCNC(=O)OCC(COC(=O)NCCCCC[n+]1ccsc1)Oc1cc(C)on1.[Br-] (racemic) [Example 33, 3-{5-[(2RS)-3-(N-Heptadecylcarbamoyloxy)-2-(5-methyl-3-isoxazolyloxy)propoxycarbonylamino]pentyl}thiazolium bromide] | 310 | 0.086
CCCCCCCCCCCCCCCCCNC(=O)OCC(COP(=O)([O-])OCC[n+]1ccsc1)Oc1cc(C)on1 (racemic) [Example 18, (2RS)-3-(N-Heptadecylcarbamoyloxy)-2-(5-methyl-3-isoxazolyloxy)propyl 2-thiazolioethyl phosphate (inner salt)] | 4800 | 0.081

— US5068340A, “Isothiazolyl substituted glycerol derivatives containing phosphate groups” (priority 1986, dated 1991)
